Some test systems named below: HCT-15 colon; IGROV1 ovarian; K-562 leukemia; MOLT-4 leukemia; OVCAR-3 ovarian; OVCAR-4 ovarian; OVCAR-8 ovarian; SK-MEL-2 melanoma; UACC-62 melanoma; UO-31 renal.
Common to all, as to test: growth of human tumour cells (NCI), 48 h

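All cell lines were grown in 96-well plates and treated with compound for 48 hours. GI50 = concentration required for 50% inhibition of growth. TGI is the concentration that stops growth completely.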

For `CN(C)CCCNC1=C(Cl)C(=O)c2ccccc2C1=O`, the GI50 in the experiment on HCT-15 colon is 1.76 µM; with IGROV1 ovarian, 2.01 µM; in the experiment on K-562 leukemia, 2.47 µM; in the experiment on MOLT-4 leukemia, 3.02 µM; in the experiment on OVCAR-3 ovarian, 1.69 µM; in the experiment on OVCAR-4 ovarian, 1.62 µM. The GI50 with OVCAR-8 ovarian is 2.08 µM; in the experiment on SK-MEL-2 melanoma it was 2.11 µM; with UACC-62 melanoma, 1.7 µM; in the experiment on UO-31 renal, 12.4 µM. Besides, the TGI with HCT-15 colon was 4.09 µM; with IGROV1 ovarian, 4.12 µM; in the experiment with K-562 leukemia, 6.03 µM; in the experiment on MOLT-4 leukemia, 8.27 µM; with OVCAR-3 ovarian, 3.17 µM; in the experiment on OVCAR-4 ovarian it was 2.98 µM. The TGI in the experiment with OVCAR-8 ovarian stood at 4.39 µM; in the experiment on SK-MEL-2 melanoma, 4.15 µM; with UACC-62 melanoma, 3.19 µM; in the experiment on UO-31 renal it was 27 µM.
For `CCOC(=O)COc1cccc2c1C(=O)CCO2`, the TGI in the experiment with HCT-15 colon, with IGROV1 ovarian, in the experiment on K-562 leukemia, in the experiment with MOLT-4 leukemia, with OVCAR-3 ovarian and in the experiment with OVCAR-4 ovarian was more than 100 µM in each case. The TGI with OVCAR-8 ovarian, with SK-MEL-2 melanoma, in the experiment with UACC-62 melanoma and in the experiment on UO-31 renal was more than 100 µM each time.
For the molecule `CCOC(=O)c1ncn2c1[nH]c(=S)c1ccccc12`, the TGI in the experiment on HCT-15 colon, in the experiment on IGROV1 ovarian, in the experiment on K-562 leukemia, with MOLT-4 leukemia, in the experiment on OVCAR-3 ovarian and in the experiment on OVCAR-4 ovarian was more than 100 µM in each case. In addition, the TGI with OVCAR-8 ovarian, in the experiment with SK-MEL-2 melanoma, with UACC-62 melanoma and with UO-31 renal was more than 100 µM each time.
On to `CC1(C)COC(c2ccc(C(F)(F)F)cc2C(O)c2ccc3ccccc3c2)=N1` (stereo not given), for which the GI50 in the experiment with HCT-15 colon, with IGROV1 ovarian, in the experiment on K-562 leukemia, in the experiment on MOLT-4 leukemia, in the experiment with OVCAR-3 ovarian and in the experiment on OVCAR-4 ovarian was more than 100 µM throughout. Also, the GI50 in the experiment with OVCAR-8 ovarian, in the experiment on SK-MEL-2 melanoma, with UACC-62 melanoma and in the experiment with UO-31 renal was more than 100 µM in each case. Moreover, the TGI in the experiment with HCT-15 colon, in the experiment with IGROV1 ovarian, in the experiment with K-562 leukemia, in the experiment on MOLT-4 leukemia, with OVCAR-3 ovarian and in the experiment with OVCAR-4 ovarian was more than 100 µM in each case. The TGI with OVCAR-8 ovarian, in the experiment on SK-MEL-2 melanoma, in the experiment with UACC-62 melanoma and in the experiment with UO-31 renal was more than 100 µM in each case.
Regarding `C[C@@H](CS(C)(=O)=O)Nc1ncc2cc(Oc3ccc(F)cc3F)c(=O)n(C)c2n1`, the GI50 in the experiment on HCT-15 colon, in the experiment on IGROV1 ovarian, in the experiment with K-562 leukemia, in the experiment with MOLT-4 leukemia, with OVCAR-3 ovarian and with OVCAR-4 ovarian was more than 25 µM each time. For the same molecule, the GI50 in the experiment on OVCAR-8 ovarian, in the experiment on SK-MEL-2 melanoma, with UACC-62 melanoma and in the experiment on UO-31 renal was more than 25 µM throughout. For the same molecule, the TGI in the experiment with HCT-15 colon, with IGROV1 ovarian, with K-562 leukemia, in the experiment on MOLT-4 leukemia, in the experiment on OVCAR-3 ovarian and in the experiment on OVCAR-4 ovarian was more than 25 µM each time. Also, the TGI in the experiment on OVCAR-8 ovarian, with SK-MEL-2 melanoma, with UACC-62 melanoma and in the experiment with UO-31 renal was more than 25 µM in each case.
Turning to `CC(=O)C(CN(C(C)C)C(C)C)C(c1ccccc1)c1c(O)c2ccccc2oc1=O` (stereo not given), the TGI with HCT-15 colon, in the experiment with IGROV1 ovarian, in the experiment on K-562 leukemia, with MOLT-4 leukemia, in the experiment on OVCAR-3 ovarian and in the experiment on OVCAR-4 ovarian was more than 100 µM in each case. In addition, the TGI with OVCAR-8 ovarian, with SK-MEL-2 melanoma, in the experiment on UACC-62 melanoma and with UO-31 renal was more than 100 µM each time.
As for `Nc1ccc(C(=O)N/C(=C\c2ccc3c(c2)OCO3)c2nc3[nH]c(=S)[nH]c(=O)c3[nH]2)cc1`, the TGI with HCT-15 colon, in the experiment with IGROV1 ovarian, in the experiment with K-562 leukemia, in the experiment on MOLT-4 leukemia, in the experiment with OVCAR-3 ovarian and in the experiment with OVCAR-4 ovarian was more than 100 µM each time. The TGI in the experiment with OVCAR-8 ovarian, with SK-MEL-2 melanoma, in the experiment with UACC-62 melanoma and in the experiment on UO-31 renal was more than 100 µM each time.
As to `Cn1ccnc1C(=O)/C=C/c1ccc(CC(=O)Nc2ccc(Br)cc2)cc1`, the GI50 in the experiment with HCT-15 colon is 2.5 µM; with IGROV1 ovarian it was 2.97 µM; in the experiment with K-562 leukemia, 3.88 µM; with MOLT-4 leukemia, 3.69 µM; with OVCAR-3 ovarian, 4.02 µM; with OVCAR-4 ovarian, 4.52 µM. Also, the GI50 was 5.39 µM in the experiment with OVCAR-8 ovarian, more than 16.7 µM in the experiment on SK-MEL-2 melanoma, 2.8 µM with UACC-62 melanoma and 2.19 µM in the experiment with UO-31 renal. Besides, the TGI in the experiment on HCT-15 colon was more than 16.7 µM; in the experiment on IGROV1 ovarian it was 10.6 µM; with K-562 leukemia, more than 16.7 µM; in the experiment with MOLT-4 leukemia it was 14.8 µM; in the experiment with OVCAR-3 ovarian, 14.4 µM; with OVCAR-4 ovarian, more than 16.7 µM. The TGI in the experiment with OVCAR-8 ovarian was more than 16.7 µM; in the experiment on SK-MEL-2 melanoma, more than 16.7 µM; in the experiment on UACC-62 melanoma, 5.73 µM; in the experiment on UO-31 renal, 4.39 µM.
In the case of `COc1cc2c(c(OC)c1O)C(=O)C(OC)C(c1ccc(O)c(O)c1)O2` (stereo not given), the GI50 is 0.0776 µM in the experiment on HCT-15 colon; 0.553 µM in the experiment with IGROV1 ovarian; 0.048 µM in the experiment on K-562 leukemia; 0.482 µM in the experiment with MOLT-4 leukemia; 0.343 µM with OVCAR-3 ovarian; more than 100 µM in the experiment on OVCAR-4 ovarian. The GI50 in the experiment on OVCAR-8 ovarian was 0.484 µM; with SK-MEL-2 melanoma it was 1.28 µM; with UACC-62 melanoma it was 0.345 µM; in the experiment on UO-31 renal, 0.53 µM. Further, the TGI was more than 100 µM in the experiment on HCT-15 colon; more than 100 µM in the experiment with IGROV1 ovarian; more than 100 µM in the experiment on K-562 leukemia; more than 100 µM with MOLT-4 leukemia; more than 32.7 µM in the experiment with OVCAR-3 ovarian; more than 100 µM in the experiment with OVCAR-4 ovarian. Besides, the TGI with OVCAR-8 ovarian, with SK-MEL-2 melanoma, in the experiment with UACC-62 melanoma and in the experiment with UO-31 renal was more than 100 µM throughout.

The record behind these values is PubChem BioAssay (NCI).
